Experimental data: patent US20120107861A1, “METHOD OF DETERMINING RISK OF ARRHYTHMIA” (priority 2010, published 2012)
Like-named read-outs stand apart in the source and are kept apart here.

Assays:
TdP = settings: clinical; cited from earlier work
QT interval = settings: cited from earlier work
[1] = maximum therapeutic plasma concentration, cited from earlier work
[2] = tested on: human iPSC-derived cardiomyocytes (iCells); settings: for IB20: lowest concentration producing IBR ≥0.2 (≥20% irregular beats over one minute); for amplitude of impedance: amplitude of each beat
Description: Cell Culture. hiPSC-derived cardiomyocytes (iCells) from Cellular Dynamics International (CDT) were thawed in Plating Media (CDI and plated as single cells onto 0.1% Gelatin (Sigma)-coated, 6-well tissue-culture plates (Corning) at a density of 2.2−2.7×10^6 cells per well. Cells were cultured for 3-5 d at 37° C., 7% CO2 prior to re-plating onto xCELLigence® 96-well cardio e-plates (ACEA/Roche Applied Sciences) or microelectrode arrays (MEAs, Multichannel Systems). The media was changed every 2 d after plating using Maintenance Media (CDI), pre-warmed to 37° C. to minimize the temperature shock on cells.
xCELLigence® cardio e-plates and MEA Re-plating. iCells cultured in 6-well plates were harvested by twice washing in dPBS (GIBCO) then lifted with 0.5% Trypsin-EDTA (GIBCO), incubated at 37° C., 7% CO2. Trypsin was quenched with Maintenance Media and cells were collectively centrifuged at 69 g for 5 minutes and resuspended in Maintenance Media to yield the target density. For cardio e-plate reseeding, cells were plated at a target density of 5×10^4 per well, estimating 80% seeding efficiency. Cardio e-plates were coated with 0.1% Gelatin for 3 h at 37° C. Background impedance measurements for cardio e-plates were made with the final volume of media equilibrated to 37° C. but without cells, immediately prior to reseeding the cells. The cells were monitored every 1 h by a 20 s sweep duration by the xCELLigence® RTCA cardio system at its maximum sampling rate (77 Hz) prior to initiating experimentation.
xCELLigence® and MEA Experimentation. Compound stocks were prepared in DMSO or dH2O at 1000 fold the highest tested concentration. For xCELLigence® experimentation, compound stocks were serially diluted in Maintenance Media in a separate 96-well tissue culture plate (Corning) at twice the target concentration. The dilution plate was incubated and equilibrated to 37° C. prior to cell exposure. […] All compounds were tested as n≧3 on multiple cardio e-plates. The xCELLigence® monitored changes to the beating for periodic 20 s sweep durations at 77 Hz.
Data Analysis. Data were first analyzed by the built-in analysis modules of xCELLigence® and MEAs systems, initial results were then exported into in-house developed Microsoft Excel templates for further semi-auto analysis. […] To calculate the “Predicted Proarrhythmic Score” (PPS), we first determined a “Irregular Beat Ratio” (IBR). The IBR was defined as the ratio of arrhythmic beat counts to the total number of beats over one minute. IBR values for each concentration at each selected time-point was averaged from 3 to 5 e-plates. The lowest concentration of drug, that generated a IBR value ≧0.2 was determined and termed “IB20.” Finally, the maximal therapeutic plasma concentration (Cmax) was divided by the IB20 to arrive at the PPS. A PPS >100 is a level of concern for drug-induced arrhythmia. […]

[3] = tested on: human iPSC-derived cardiomyocytes (iCells); assay: Multi-electrode array (MEA) field potential recording of iPSC-derived cardiomyocytes; type: cell-based; settings: iPSC-CMs
Description: MEAs were prepared according to manufacturer guidelines. Briefly, microelectrodes in 6-well MEA dishes were coated with 2 μL Fibronectin (Sigma) diluted 1:20 and incubated at 37° C. for 3 h. Cells were reseeded at the target density of 3×10^4 cells in a 2 μL delivery to microelectrodes and incubated at 37° C., 7% CO2 for 3 h prior to filling each well with Maintenance Media. The media of cardio e-plates and MEAs were changed every 2 d thereafter, using Maintenance Media warmed to 37° C. Cells were cultured for 3-7 d prior to conducting an experiment on cardio e-plates or MEAs.
The wells of the MEAs had half the volume in each well replaced with fresh warm Maintenance Media, immediately prior to experimentation so as to be consistent with the media replacement for xCELLigence® experimentation. MEAs were allowed a 15 min equilibration period within the MEA recorder system (Multichannel Systems), prior to compound exposure. The temperature was maintained at 37° C. and a constant air flow of 95% O2, 5% CO2, was perfused over the MEAs. Compound additions were made in serially increasing additions, recording for 15 min at each concentration. All compounds were tested as n≧4 wells.

hERG channel = hERG channel (Homo sapiens, UniProt Q12809); settings: cited from earlier work
[4] = Table I, Cmax/IB20, cut-off >100 as level of concern

hERG channel, sequence (Q12809 whole entry): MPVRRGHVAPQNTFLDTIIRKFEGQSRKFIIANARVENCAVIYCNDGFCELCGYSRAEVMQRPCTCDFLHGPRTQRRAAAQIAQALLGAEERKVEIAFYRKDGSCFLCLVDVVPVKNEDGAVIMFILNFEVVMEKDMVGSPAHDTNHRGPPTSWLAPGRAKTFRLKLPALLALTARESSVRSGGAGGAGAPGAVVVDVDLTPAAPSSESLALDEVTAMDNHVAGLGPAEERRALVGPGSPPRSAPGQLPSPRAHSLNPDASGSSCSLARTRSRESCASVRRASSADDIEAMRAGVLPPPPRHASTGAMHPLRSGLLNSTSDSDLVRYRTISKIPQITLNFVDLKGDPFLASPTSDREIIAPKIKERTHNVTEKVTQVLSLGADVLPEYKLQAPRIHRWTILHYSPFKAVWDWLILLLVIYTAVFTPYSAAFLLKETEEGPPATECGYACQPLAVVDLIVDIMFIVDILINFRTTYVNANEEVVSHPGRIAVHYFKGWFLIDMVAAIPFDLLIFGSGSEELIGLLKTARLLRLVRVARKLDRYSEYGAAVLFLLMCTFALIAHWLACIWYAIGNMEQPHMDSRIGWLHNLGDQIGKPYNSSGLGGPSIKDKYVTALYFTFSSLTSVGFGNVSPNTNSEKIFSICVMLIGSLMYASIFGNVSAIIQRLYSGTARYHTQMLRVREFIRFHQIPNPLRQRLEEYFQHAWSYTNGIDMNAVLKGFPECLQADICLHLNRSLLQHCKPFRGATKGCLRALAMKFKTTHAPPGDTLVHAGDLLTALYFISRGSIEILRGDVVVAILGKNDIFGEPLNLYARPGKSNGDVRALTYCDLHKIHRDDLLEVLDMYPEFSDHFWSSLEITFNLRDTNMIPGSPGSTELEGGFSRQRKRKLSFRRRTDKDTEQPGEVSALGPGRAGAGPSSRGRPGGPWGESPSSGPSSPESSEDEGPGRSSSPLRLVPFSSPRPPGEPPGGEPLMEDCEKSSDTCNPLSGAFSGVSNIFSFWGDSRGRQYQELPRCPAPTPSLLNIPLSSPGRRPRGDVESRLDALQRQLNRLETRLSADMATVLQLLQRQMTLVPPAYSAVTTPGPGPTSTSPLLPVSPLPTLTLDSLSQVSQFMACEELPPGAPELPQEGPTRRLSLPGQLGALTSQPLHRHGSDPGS

CCCCc1oc2ccccc2c1C(=O)c1cc(I)c(OCCN(CC)CC)c(I)c1 [Amiodarone]
TdP liability (TdP): very low risk of TdP

CS(=O)(=O)c1ccc(C2=C(c3ccccc3)C(=O)OC2)cc1 [Rofecoxib]
QT prolongation (QT interval; in patients / in vivo): devoid of QT prolongation
Cmax ([1]; Table I): 1020 nM
Cmax ([1]; Table II): 1020 nM
TdP liability (TdP): devoid of QT prolongation and TdP liability

CC1(C)S[C@@H]2[C@H](NC(=O)[C@H](N)c3ccc(O)cc3)C(=O)N2[C@H]1C(=O)O [Amoxicillin]
QT prolongation (QT interval; in patients / in vivo): devoid of QT prolongation
Cmax ([1]; Table I): 17000 nM
Cmax ([1]; Table II): 17000 nM
IB20 ([2]; Table I): >1,000 μM
IB20 ([2]; Table II): >1,000,000 nM
TdP liability (TdP): devoid of QT prolongation and TdP liability

C[C@@H]1O[C@@H](O[C@H]2C[C@@H](O)[C@]3(CO)[C@H]4[C@H](O)C[C@]5(C)[C@@H](C6=CC(=O)OC6)CC[C@]5(O)[C@@H]4CC[C@]3(O)C2)[C@H](O)[C@H](O)[C@H]1O [Ouabain]
Cmax ([1]; Table I): 170 nM
Cmax ([1]; Table II): 170 nM
PPS [2, 4]: 5667
IB20 ([2]; Table I): 0.03 µM
IB20 ([2]; Table II): 0.03 µM
PPS ([2]; human): 0.2
alterations in beat patterns / arrhythmic beats ([2]; human iPSC-CMs): Irregular beating patterns were observed
amplitude of impedance ([2]; iPSC-CMs): increased
amplitude in MEA ([3]; for nifedipine Ca2+-peak amplitude): increased

C=C[C@H]1C[N@@]2CC[C@H]1C[C@@H]2[C@@H](O)c1ccnc2ccc(OC)cc12 [Quinidine]
Cmax ([1]; Table I): 21600 nM
Cmax ([1]; Table II): 21600 nM
alterations in beat patterns / arrhythmic beats [2]: Irregular beating patterns were observed
PPS [2, 4]: 2158
PPS ([2]; human): 0.5

Cc1cccc(CCN2CCC(C(=O)c3ccc(NS(C)(=O)=O)cc3)CC2)n1 [E-4031]
beat rate ([2]; iPSC-CMs, impedance): dose-dependent reduction in beat rate

COc1c(N2C[C@@H]3CCCN[C@@H]3C2)c(F)cc2c(=O)c(C(=O)O)cn(C3CC3)c12 [Moxifloxacin]
QT prolongation (QT interval; human, in vivo): induce QT prolongation
Cmax ([1]; Table I): 10300 nM
Cmax ([1]; Table II): 10300 nM
alterations in beat patterns / arrhythmic beats [2]: not torsadogenic
PPS [2, 4]: <103
PPS ([2]; human): >10
hERG inhibition (hERG channel): inhibit hERG

COc1ccc(CCN2CCC(Nc3nc4ccccc4n3Cc3ccc(F)cc3)CC2)cc1 [Astemizole]
Cmax ([1]; Table I): 8 nM
Cmax ([1]; Table II): 8 nM

CN(CCOc1ccc(NS(C)(=O)=O)cc1)CCc1ccc(NS(C)(=O)=O)cc1 [Dofetilide]
Cmax ([1]; Table I): 6 nM
Cmax ([1]; Table II): 6 nM
PPS [2, 4]: 2000
PPS ([2]; human): 0.5

CCN1C[C@]2(COC)[C@H](O)C[C@H](OC)[C@@]34[C@@H]5C[C@@]6(O)[C@H](OC(=O)c7ccccc7)[C@@H]5[C@@](OC(C)=O)([C@@H]([C@H](OC)[C@H]23)[C@@H]14)[C@@H](O)[C@@H]6OC [Aconitine]
Cmax ([1]; Table I): 77 nM
Cmax ([1]; Table II): 77 nM
concentration showing arrhythmia relative to the efficacious concentration [2]: arrhythmia at concentrations less than the efficacious concentration
PPS [2, 4]: 2567
IB20 ([2]; Table I): 0.03 µM
IB20 ([2]; Table II): 0.03 µM
PPS ([2]; human): 0.4

CCN(c1ccccc1)c1cc(=NC)n(C)c(C)n1.Cl [ZD7288]
beat rate ([2]; iPSC-CMs, impedance): reduction in beat rate

Cc1ccc2c(c1)C(=O)C1(O)CCN(c3ccccc3)C1=N2 (centres unmarked) [blebbistatin]
cardiomyocyte beating using impedance ([2]; iPSC-CMs, myosin II inhibition): no cardiomyocyte beating was observed
electrophysiology of the cardiomyocytes detected by MEA [3]: remained unchanged

NC1=N[C@H](O)[C@H]2[C@H]3O[C@]4(O)O[C@@H]([C@@H](O)[C@@]2(N1)[C@@H]4O)[C@]3(O)CO [Tetrodotoxin]
beat rate [2]: reduction in beat rate

COc1cc2nc(N(C)CCCNC(=O)C3CCCO3)nc(N)c2cc1OC (centres unmarked) [Alfuzosin]
QT prolongation (QT interval; in patients / in vivo): induce QT prolongation
Cmax ([1]; Table I): 56 nM
Cmax ([1]; Table II): 56 nM
effect at concentrations substantially higher than employed in vivo [2]: beat rate reduction and appearance of arrhythmic beats
TdP liability (TdP): free of TdP

C[C@H](CS)C(=O)N1CCC[C@H]1C(=O)O [Captopril]
QT prolongation (QT interval; human, in vivo): devoid of QT prolongation
Cmax ([1]; Table I): 2470 nM
Cmax ([1]; Table II): 2470 nM
PPS [2, 4]: <25

CC(C)(C)c1ccc(C(O)CCCN2CCC(C(O)(c3ccccc3)c3ccccc3)CC2)cc1 (centres unmarked) [Terfenadine]
Cmax ([1]; Table I): 300 nM
Cmax ([1]; Table II): 300 nM

CC(C)NCC(O)c1ccc(O)c(O)c1 (centres unmarked) [Isoproterenol]
amplitude of impedance ([2]; iPSC-CMs): increased
beat rate ([2]; iPSC-CMs, impedance): increased
beat rate in MEA [3]: increased

CC(=O)Oc1ccccc1C(=O)O [Aspirin]
QT prolongation (QT interval; in patients / in vivo): devoid of QT prolongation
Cmax ([1]; Table I): 10000 nM
Cmax ([1]; Table II): 10000 nM
TdP liability (TdP): devoid of QT prolongation and TdP liability

CC(C)NCC(O)c1ccc(NS(C)(=O)=O)cc1 (centres unmarked) [Sotalol]
Cmax ([1]; Table I): 14700 nM
Cmax ([1]; Table II): 14700 nM
alterations in beat patterns / arrhythmic beats [2]: Irregular beating patterns were observed

COc1cc(N)c(Cl)cc1C(=O)NC1CCN(CCCOc2ccc(F)cc2)CC1OC (centres unmarked) [Cisapride]
Cmax ([1]; Table I): 129 nM
Cmax ([1]; Table II): 129 nM
alterations in beat patterns / arrhythmic beats [2]: Irregular beating patterns were observed

CNCCC(Oc1ccc(C(F)(F)F)cc1)c1ccccc1 (centres unmarked) [Fluoxetine]
Cmax ([1]; Table I): 485 nM
Cmax ([1]; Table II): 485 nM
TdP liability (TdP): very low risk of TdP

COc1ccccc1OCC(O)CN1CCN(CC(=O)Nc2c(C)cccc2C)CC1 (centres unmarked) [Ranolazine]
QT prolongation (QT interval; in patients / in vivo): induce QT prolongation
Cmax ([1]; Table I): 6010 nM
Cmax ([1]; Table II): 6010 nM
alterations in beat patterns / arrhythmic beats [2]: not torsadogenic
TdP liability (TdP): free of TdP
hERG inhibition (hERG channel): inhibit hERG

CC[C@H]1OC(=O)[C@H](C)[C@@H](O[C@H]2C[C@@](C)(OC)[C@@H](O)[C@H](C)O2)[C@H](C)[C@@H](O[C@@H]2O[C@H](C)C[C@H](N(C)C)[C@H]2O)[C@](C)(O)C[C@@H](C)C(=O)[C@H](C)[C@@H](O)[C@]1(C)O [Erythromycin]
Cmax ([1]; Table I): 34100 nM
Cmax ([1]; Table II): 34100 nM
alterations in beat patterns / arrhythmic beats [2]: Irregular beating patterns were observed
